Usually IC50 stands for the midpoint of a concentration-inhibition curve. As a reminder, the inhibition is how much of the control response was suppressed.

One assay deals with T1, epidermal growth factor receptor tyrosine kinase (Homo sapiens, UniProt P00533).
T1 construct: A native 170,000 epidermal growth factor receptor-kinase complex from shed plasma membrane vesicles; endogenous in cells
T1 sequence (P00533 25-1210): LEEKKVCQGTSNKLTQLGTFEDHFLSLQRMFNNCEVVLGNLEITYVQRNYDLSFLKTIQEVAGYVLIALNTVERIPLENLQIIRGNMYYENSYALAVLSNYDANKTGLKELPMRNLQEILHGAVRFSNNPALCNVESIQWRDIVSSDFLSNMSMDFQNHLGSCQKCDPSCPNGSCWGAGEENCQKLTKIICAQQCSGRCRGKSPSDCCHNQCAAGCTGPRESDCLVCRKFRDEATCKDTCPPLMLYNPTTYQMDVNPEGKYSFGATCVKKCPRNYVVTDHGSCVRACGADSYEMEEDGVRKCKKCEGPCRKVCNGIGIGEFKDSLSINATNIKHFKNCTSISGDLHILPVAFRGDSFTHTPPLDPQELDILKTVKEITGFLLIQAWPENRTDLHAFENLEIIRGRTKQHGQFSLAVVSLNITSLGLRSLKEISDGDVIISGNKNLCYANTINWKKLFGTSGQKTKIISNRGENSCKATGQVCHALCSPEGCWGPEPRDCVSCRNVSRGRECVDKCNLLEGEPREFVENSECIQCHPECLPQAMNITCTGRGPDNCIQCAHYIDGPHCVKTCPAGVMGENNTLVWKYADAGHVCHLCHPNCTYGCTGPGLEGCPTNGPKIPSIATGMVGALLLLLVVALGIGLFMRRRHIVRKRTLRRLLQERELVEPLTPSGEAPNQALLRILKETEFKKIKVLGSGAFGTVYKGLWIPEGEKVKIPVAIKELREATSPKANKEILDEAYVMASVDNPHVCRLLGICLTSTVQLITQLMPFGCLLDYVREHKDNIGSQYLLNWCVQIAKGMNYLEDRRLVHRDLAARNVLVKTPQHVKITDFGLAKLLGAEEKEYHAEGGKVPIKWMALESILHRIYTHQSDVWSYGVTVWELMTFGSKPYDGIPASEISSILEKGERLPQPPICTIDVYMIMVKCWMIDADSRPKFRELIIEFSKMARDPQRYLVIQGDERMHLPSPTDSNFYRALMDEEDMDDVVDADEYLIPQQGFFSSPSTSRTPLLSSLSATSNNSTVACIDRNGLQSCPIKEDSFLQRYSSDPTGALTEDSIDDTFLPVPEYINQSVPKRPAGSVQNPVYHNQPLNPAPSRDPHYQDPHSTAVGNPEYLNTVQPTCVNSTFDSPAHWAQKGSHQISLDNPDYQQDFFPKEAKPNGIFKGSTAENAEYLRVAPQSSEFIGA
T1 sequence (P01133 971-1023 partner limits assumed): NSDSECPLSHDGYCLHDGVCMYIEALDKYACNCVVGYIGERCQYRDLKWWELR
Description: EGF receptor tyrosine kinase assay (P^32 incorporation in GAT). The assay is classed as biochemical. The following applies: Table 2, EGRF-R; IC50 entries; read-out: IC50 (EGFR TK). As to the method: At the time of assay, membranes were solubilized in 4% Triton X-100 and glycerol. The reaction is carried out in wells of a 96-well microtiter plate in a total volume of […]. Buffer containing 20 mMHepes (pH 7.4), 15 mMMgCl2, mM MnCl2, and 0.02% BSA followed by […] of membrane protein and 150 ng of epidermal growth factor. The plates are incubated for 10 minutes at room temperature to activate the receptor kinase. […] ATP plus or minus compound are added and incubated 10 minutes at room temperature.
As to `CNC(=O)CCc1c(SSc2[nH]c3ccccc3c2CCC(=O)NC)[nH]c2ccccc12` [Compound 51], the half-inhibitory concentration (IC50) came out at 7 µM.

With `CN(C)C(=O)CCc1c(SSc2[nH]c3ccccc3c2CCC(=O)N(C)C)[nH]c2ccccc12` [Compound 53], the IC50 turned out to be 4.2 µM.

Consider `CC(=O)OC(Cc1c(SSc2[nH]c3ccccc3c2CC(OC(C)=O)C(=O)NCc2ccccc2)[nH]c2ccccc12)C(=O)NCc1ccccc1` (centres unmarked) [Compound 63], for which the 50% inhibitory concentration (IC50) is 60 µM.

As for `O=C(NCc1ccccc1)C(O)Cc1c(SSc2[nH]c3ccccc3c2CC(O)C(=O)NCc2ccccc2)[nH]c2ccccc12` (stereo not drawn) [Compound 64, 2,2'-dithiobis[α-hydroxy-N -(phenylmethyl)-1H-indole-3-propanamide]], the IC50 was 29 µM.

Turning to `O=C(O)CCCc1c(SSc2[nH]c3ccccc3c2CCCC(=O)O)[nH]c2ccccc12` [Compound 65, bis[indolyl-3-butanoic acid-(2)]disulfide], the IC50 came to 17.8 µM.

Turning to `Cn1c(SSc2c(CCCC(=O)O)c3ccccc3n2C)c(CCCC(=O)O)c2ccccc21` [Compound 66], the IC50 stood at 8.3 µM.

As to `CC(=O)Oc1cccc2c(C(=O)Nc3ccccc3)c(SSc3c(C(=O)Nc4ccccc4)c4cccc(OC(C)=O)c4n3C)n(C)c12` [Compound 95, 2,2'-dithiobis[N-phenyl-7-acetoxy-1-methylindolyl-3-carboxamide]], the IC50 was determined as 9.4 µM.

Regarding `Cn1c(SSc2c(C(=O)c3ccc(C(=O)O)cc3)c3ccccc3n2C)c(C(=O)c2ccc(C(=O)O)cc2)c2ccccc21` [Compound 101, bis[3-(4'-carboxybenzoyl)-1-methylindole-(2)]disulfide], the IC50 was 5.5 µM.

Turning to `COC(=O)c1ccc(C(=O)c2c(SSc3c(C(=O)c4ccc(C(=O)OC)cc4)c4ccccc4n3C)n(C)c3ccccc23)cc1` [Compound 102, bis[3-(4'-carbomethoxybenzoyl)-1-methylindole-(2)]disulfide], the IC50 turned out to be 6.1 µM.

As to `Cn1c(SSc2c(C(=O)Nc3cccc(C(=O)O)c3)c3ccccc3n2C)c(C(=O)Nc2cccc(C(=O)O)c2)c2ccccc21` [Compound 107, 2,2'-dithiobis[N-(3-carboxy)phenyl-1-methylindolyl-3-carboxamide]], the IC50 was found to be 12 µM.

On to `COC(=O)c1ccc(CNC(=O)c2c(SSc3c(C(=O)NCc4ccc(C(=O)OC)cc4)c4ccccc4n3C)n(C)c3ccccc23)cc1` [Compound 110, 2,2'-dithiobis [N-(4'-carbomethoxy)benzyl 1-methylindolyl-3-carboxamide]], for which the IC50 came out at 13 µM.

Turning to `Cn1c(SSc2c(C#N)c3ccccc3n2C)c(C#N)c2ccccc21` [Compound 120], the 50% inhibitory concentration (IC50) stood at 6.9 µM.

As to `CC(=O)c1c(SSc2c(C(C)=O)c3ccccc3n2C)n(C)c2ccccc12` [Compound 121, 2,2'-dithiobis(3-acetyl-1-methylindole)], the IC50 was 5.6 µM.

As for `CNC(=O)c1c(SSc2[nH]c3ccccc3c2C(=O)NC)[nH]c2ccccc12` [Compound 127, 2,2'-dithiobis[N-methylindolinyl-3-carboxamide]], the IC50 worked out at 6.8 µM.

The assay is the same for the next values; noted with them: at 100 μM; EGRF-R; read-out: % Inhibition at 100 μM (EGFR TK).
On to `O=C(NCc1ccccc1)C(Cc1c(SSc2[nH]c3ccccc3c2CC(NC(=O)C(F)(F)F)C(=O)NCc2ccccc2)[nH]c2ccccc12)NC(=O)C(F)(F)F` (racemic) [Compound 61, 2,2'-dithiobis[N-benzyl-α-trifluoroacetylamino-3-(3-indolyl)propanamide]], for which the inhibition at 100 µM worked out at 37%.

`COC(=O)CC1C(=S)Nc2ccccc21` (centres unmarked) [Compound 3, methyl 2-(2-thioxo-3-indolinyl)acetate]: the inhibition at 100 µM turned out to be 43%.

In the case of `O=C(CCc1c(SSc2[nH]c3ccccc3c2CCC(=O)NCc2ccc(C(=O)O)c(O)c2)[nH]c2ccccc12)NCc1ccc(C(=O)O)c(O)c1` [Compound 58], the inhibition at 100 µM was determined as 68%.

`Cn1c(SSc2c(C(=O)Nc3ccccc3)c3cccc(Cl)c3n2C)c(C(=O)Nc2ccccc2)c2cccc(Cl)c21` [Compound 74, bis [N-phenyl-7-chloro-1-methylindolyl-3-carboxamide-(2)]disulfide]: the inhibition at 100 µM came to 23%.

Turning to `CC(=O)Oc1ccc2c(C(=O)Nc3ccccc3)c(SSc3c(C(=O)Nc4ccccc4)c4ccc(OC(C)=O)cc4n3C)n(C)c2c1` [Compound 93, 2,2'-dithiobis [N-phenyl-6-acetoxy-1-methylindolyl-3-carboxamide]], the inhibition at 100 µM is 30%.

In the case of `COC(=O)c1ccc(NC(=O)c2c(SSc3c(C(=O)Nc4ccc(C(=O)OC)cc4)c4ccccc4n3C)n(C)c3ccccc23)cc1` [Compound 104, 2,2'-dithiobis [N-(4'-carbomethoxy)phenyl-1-methylindolyl-3-carboxamide]], the inhibition at 100 µM is 20%.

For the compound `COC(=O)c1cccc(NC(=O)c2c(SSc3c(C(=O)Nc4cccc(C(=O)OC)c4)c4ccccc4n3C)n(C)c3ccccc23)c1` [Compound 106, 2,2'-dithiobis [N-(3'-carbomethoxy)phenyl-1-methylindolyl-3-carboxamide]], the inhibition at 100 µM amounted to 34%.

Take `COC(=O)c1ccccc1NC(=O)c1c(SSc2c(C(=O)Nc3ccccc3C(=O)OC)c3ccccc3n2C)n(C)c2ccccc12` [Compound 108, 2,2'-dithiobis [N-(2-carbomethoxy)phenyl-1-methylindolyl-3-carboxamide]]: the inhibition at 100 µM came to 20%.

Regarding `Cn1c(SSc2c(C(=O)Nc3ccccn3)c3ccccc3n2C)c(C(=O)Nc2ccccn2)c2ccccc21` [Compound 122, 2,2'-dithiobis [N-(2'-pyridyl)-1-methylindole-3-carboxamide]], the inhibition at 100 µM turned out to be 51%.

For `O=C(NCc1ccccc1)c1c(SSc2[nH]c3ccccc3c2C(=O)NCc2ccccc2)[nH]c2ccccc12` [Compound 125, 2,2'-dithiobis [N-benzylindolyl-3-carboxamide]], the inhibition at 100 µM was determined as 78%.

For the compound `O=C(Nc1ccccc1)c1c(SSc2[nH]c3ccccc3c2C(=O)Nc2ccccc2)[nH]c2ccccc12` [Compound 126, 2,2'-dithiobis [N-phenylindolyl-3-carboxamide]], the inhibition at 100 µM came to 60%.

Take `Cn1c([Se][Se]c2c(C(=O)OC(C)(C)C)c3ccccc3n2C)c(C(=O)OC(C)(C)C)c2ccccc21` [Compound 129, 2,2'-diselenobis [1-methyl-1H-indole-3-carboxylic acid, t-butyl ester]]: the inhibition at 100 µM worked out at 31%.

The assay is the same for the next values; noted with them: read-out: IC50 (EGFR TK).
Turning to `Cn1c([Se][Se]c2c(C(=O)O)c3ccccc3n2C)c(C(=O)O)c2ccccc21` [Compound 130, 2,2'-diselenobis [1-methyl-1H-indole-3-carboxylic acid]], the IC50 amounted to 3.5 µM.

For the compound `CCN(CC)CCn1c([Se][Se]c2c(C(=O)NC)c3ccccc3n2CCN(CC)CC)c(C(=O)NC)c2ccccc21` [Compound 135, 2,2'-diselenobis [1-[2-(diethylamino)ethyl] -N-methyl-1H-indole-3-carboxamide]], the IC50 was 6.9 µM.

The target in a further assay is T2, human PDGF β receptor intracellular tyrosine kinase domain (Homo sapiens, UniProt P09619).
T2 construct: human PDGF β receptor intracellular tyrosine kinase domain; made in house; host or cells: SF9 insect cells, recombinant baculovirus; cell lysates used
T2 sequence (P09619 554-1106 limits assumed): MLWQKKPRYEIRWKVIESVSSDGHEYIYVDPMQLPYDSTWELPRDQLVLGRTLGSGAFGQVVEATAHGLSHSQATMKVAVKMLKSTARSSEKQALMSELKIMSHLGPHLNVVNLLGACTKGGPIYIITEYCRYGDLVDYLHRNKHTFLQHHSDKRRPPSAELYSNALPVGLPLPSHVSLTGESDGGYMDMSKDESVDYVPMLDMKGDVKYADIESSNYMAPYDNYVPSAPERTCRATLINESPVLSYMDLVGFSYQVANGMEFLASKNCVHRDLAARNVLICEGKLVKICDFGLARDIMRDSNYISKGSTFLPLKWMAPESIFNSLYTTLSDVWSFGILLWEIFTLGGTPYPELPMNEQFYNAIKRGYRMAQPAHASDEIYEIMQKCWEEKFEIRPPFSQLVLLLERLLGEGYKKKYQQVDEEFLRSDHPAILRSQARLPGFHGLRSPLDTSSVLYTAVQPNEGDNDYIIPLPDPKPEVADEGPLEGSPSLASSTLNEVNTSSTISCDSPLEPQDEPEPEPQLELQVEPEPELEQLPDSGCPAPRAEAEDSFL
Description: PDGF receptor tyrosine kinase inhibition assay (P^32 incorporation in Glu-Tyr). Type of assay: biochemical. To be noted: at 100 μM; PDGF-R; read-out: % Inhibition at 100 μM (PDGFR TK).
Description: Recombinant baculovirus containing human PDGF β receptor intracellular tyrosine kinase domain was used to infect SF9 cells to overexpress the protein, and cell lysates were used for the assay. The ability of the tyrosine kinase to phosphorylate glutamate tyrosine substrate in the presence of P^32 -ATP and inhibitor was measured by counting the incorporation of P^32 in Glu-Tyr in TCAprecipitable material.
For the compound `O=C(NCc1ccccc1)C(Cc1c(SSc2[nH]c3ccccc3c2CC(NC(=O)C(F)(F)F)C(=O)NCc2ccccc2)[nH]c2ccccc12)NC(=O)C(F)(F)F` (racemic) [Compound 61, 2,2'-dithiobis[N-benzyl-α-trifluoroacetylamino-3-(3-indolyl)propanamide]], the inhibition at 100 µM is 11%.

For `COC(=O)CC1C(=S)Nc2ccccc21` (centres unmarked) [Compound 3, methyl 2-(2-thioxo-3-indolinyl)acetate], the inhibition at 100 µM amounted to 8.6%.

Staying with this assay, now noted: read-out: % Inhibition at 100 μM (PDGFR TK).
Regarding `COC(=O)c1ccc(C(=O)C2C(=S)N(C)c3ccccc32)cc1` (centres unmarked) [Compound 26, 3-(4'-carbomethoxybenzoyl) -1-methyl-2-indolinethione], the inhibition at 100 µM came to 5%.

`Cn1c(SSc2c(C(=O)c3ccccc3)c3ccccc3n2C)c(C(=O)c2ccccc2)c2ccccc21` [Compound 100, bis[3-benzoyl-1-methylindole-(2)]disulfide]: the inhibition at 100 µM turned out to be 23%.
